According to US10000474B2, “Histone deacetylase inhibitors and uses thereof” (MUSC FOUNDATION FOR RESEARCH DEVELOPMENT, priority 2014, dated 2018):
Where a name gives a salt, the structure may show the parent alone.

Experiments:
Type in all cases: biochemical
Conditions in all cases: test concentration not given; average of triplicate
Recombinant human HDAC1 = target: T1, Recombinant human HDAC1 (Homo sapiens, UniProt Q13547); test: HDAC inhibitory assay, HDAC1 (Boc-Lys(Ac)-AMC substrate)
T1 construct: purchased BPS Biosciences
Method: (§1) The compounds of Examples 1-12 and 14-16 were evaluated for their ability to act as inhibitors of human HDAC. The compound of Example 13 was not tested. Recombinant human HDAC1, HDAC2, HDAC3/NcoR2, HDAC5, HDAC6, HDAC8, HDAC9, HDAC10 and HDAC11 were purchased from BPS Biosciences. Recombinant human HDAC4 and HDAC7 were purchased from Millipore. The substrate Boc-Lys(Ac)-AMC and Boc-Lys(Tfa)-AMC were purchased from Bachem. The substrate Ac-RHK(Ac)K(Ac)-AMC was purchased from Enzo Life Sciences. Due to the different specific activities of each isoform, different amount of enzyme was used in each isoform screening assay. In these assays, trichostatin A (TSA), suberanilohydroxamic acid and diphenylacetohydroxamic acid (DPAHA) were employed as positive controls. All determinations were carried out in triplicate, and reported values were the average of these determinations, which in no case varied by more than 5%.
(§2) Then 25 μl of the Boc-Lys(Ac)-AMC substrate (50 μM final concentration) was added and incubated at 37° C. for 30-60 min, and followed by adding 50 μl of developer (1 mg/ml trypsin and 1 μM TSA). The last step was reading the samples in a SpectraMax M5 plate reader (Molecular Devices) at an excitation wavelength of 360 nm and an emission wavelength of 460 nm.

Recombinant human HDAC6 = target: T2, Recombinant human HDAC6 (Homo sapiens, UniProt Q9UBN7); test: HDAC inhibitory assay, HDAC6 (Boc-Lys(Ac)-AMC substrate)
T2 construct: purchased BPS Biosciences
T2 sequence (Q9UBN7 1-1215): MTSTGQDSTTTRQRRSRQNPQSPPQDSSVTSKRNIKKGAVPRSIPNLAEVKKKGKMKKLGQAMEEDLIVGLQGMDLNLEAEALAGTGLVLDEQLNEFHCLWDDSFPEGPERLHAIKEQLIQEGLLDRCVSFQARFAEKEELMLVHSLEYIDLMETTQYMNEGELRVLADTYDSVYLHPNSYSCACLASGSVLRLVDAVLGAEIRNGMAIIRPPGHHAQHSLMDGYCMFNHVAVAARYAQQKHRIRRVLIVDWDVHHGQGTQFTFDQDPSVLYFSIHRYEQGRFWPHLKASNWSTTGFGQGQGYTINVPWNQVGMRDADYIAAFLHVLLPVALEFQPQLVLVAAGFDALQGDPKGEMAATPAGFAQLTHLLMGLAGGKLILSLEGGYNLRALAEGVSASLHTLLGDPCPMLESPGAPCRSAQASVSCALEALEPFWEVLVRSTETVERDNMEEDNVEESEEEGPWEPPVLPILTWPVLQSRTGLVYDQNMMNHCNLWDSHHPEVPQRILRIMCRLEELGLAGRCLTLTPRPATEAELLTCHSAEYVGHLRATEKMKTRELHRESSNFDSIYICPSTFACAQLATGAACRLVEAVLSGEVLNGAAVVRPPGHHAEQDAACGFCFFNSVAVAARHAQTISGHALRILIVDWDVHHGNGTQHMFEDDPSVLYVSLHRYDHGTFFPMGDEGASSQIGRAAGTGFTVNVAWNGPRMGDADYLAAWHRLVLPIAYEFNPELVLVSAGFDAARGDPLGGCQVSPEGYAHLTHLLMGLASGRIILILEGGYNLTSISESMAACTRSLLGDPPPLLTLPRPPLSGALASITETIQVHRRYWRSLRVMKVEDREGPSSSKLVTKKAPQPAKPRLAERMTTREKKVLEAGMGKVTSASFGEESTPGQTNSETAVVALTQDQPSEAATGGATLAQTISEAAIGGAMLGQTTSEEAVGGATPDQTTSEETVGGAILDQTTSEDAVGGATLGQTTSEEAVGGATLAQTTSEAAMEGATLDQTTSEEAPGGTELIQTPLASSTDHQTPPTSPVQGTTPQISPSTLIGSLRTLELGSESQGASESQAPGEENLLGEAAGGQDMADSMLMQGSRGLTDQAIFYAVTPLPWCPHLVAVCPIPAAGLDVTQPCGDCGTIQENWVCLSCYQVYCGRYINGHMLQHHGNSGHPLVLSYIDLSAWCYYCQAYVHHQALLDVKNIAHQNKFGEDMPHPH
Method: as §1, §2

Recombinant human HDAC8 = target: T3, Recombinant human HDAC8 (Homo sapiens, UniProt Q9BY41); test: HDAC inhibitory assay, HDAC8 (Ac-RHK(Ac)K(Ac)-AMC substrate)
T3 construct: purchased BPS Biosciences
T3 sequence (Q9BY41 1-377): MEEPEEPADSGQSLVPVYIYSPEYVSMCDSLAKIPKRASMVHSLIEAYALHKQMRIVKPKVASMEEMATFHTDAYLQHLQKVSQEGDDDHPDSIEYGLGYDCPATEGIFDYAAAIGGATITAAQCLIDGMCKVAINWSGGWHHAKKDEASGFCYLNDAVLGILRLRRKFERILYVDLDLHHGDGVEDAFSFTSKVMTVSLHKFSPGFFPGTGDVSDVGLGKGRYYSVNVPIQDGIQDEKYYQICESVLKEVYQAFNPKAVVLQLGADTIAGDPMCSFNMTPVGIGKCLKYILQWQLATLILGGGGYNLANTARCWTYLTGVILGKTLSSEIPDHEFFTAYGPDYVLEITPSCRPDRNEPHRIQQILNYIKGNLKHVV
Method: as §1
For evaluating the inhibition of HDAC8, 10 μl of test samples were first incubated with 25 ng HDAC8 (specific activity 298 pmol/min/μg). Then 25 μl of the fluorogenic peptide from p53 residues 379-382 (Ac-RHK(Ac)K(Ac)-AMC, 50 μM final concentration) was added and incubated at 37° C. for 30-60 min, and followed by adding 50 μl of developer (1 mg/ml trypsin and 1 uM TSA). The last step was to read the samples in a SpectraMax M5 plate reader (Molecular Devices) at an excitation wavelength of 360 nm and an emission wavelength of 460 nm.

[1] = target: T4, Recombinant human HDAC3/NcoR2 (Homo sapiens, UniProt O15379); test: HDAC inhibitory assay, HDAC3 (Boc-Lys(Ac)-AMC substrate)
T4 construct: purchased BPS Biosciences
Method: as §1, §2

Recombinant human HDAC9 = target: T5, Recombinant human HDAC9 (Homo sapiens, UniProt Q9UKV0); test: HDAC inhibitory assay, HDAC9 (Boc-Lys(Tfa)-AMC substrate)
T5 construct: purchased BPS Biosciences
Method: as §1
For evaluating the inhibition of class IIa HDACs (HDAC4, HDAC5, HDAC7 and HDAC9) and class IV HDAC (HDAC11), 10 μl of test samples were first incubated with 1 ng HDAC4 (specific activity=15400 pmol/min/μg), 5 ng HDAC5 (specific activity=2521 pmol/min/μg), 1 ng HDAC7 (specific activity=26340 pmol/min/μg), 5 ng HDAC9 (specific activity=3000 pmol/min/μg), and 500 ng HDAC11 (specific activity=1.8 pmol/min/μg) respectively. Then 25 μl of the Boc-Lys(Tfa)-AMC substrate (50 μM final concentration) was added and incubated at 37° C. for 30-60 min, and followed by adding 50 μl of developer. The last step was to read the samples in a SpectraMax M5 plate reader (Molecular Devices) at an excitation wavelength of 360 nm and an emission wavelength of 460 nm.

T1 sequence (Q13547 whole entry): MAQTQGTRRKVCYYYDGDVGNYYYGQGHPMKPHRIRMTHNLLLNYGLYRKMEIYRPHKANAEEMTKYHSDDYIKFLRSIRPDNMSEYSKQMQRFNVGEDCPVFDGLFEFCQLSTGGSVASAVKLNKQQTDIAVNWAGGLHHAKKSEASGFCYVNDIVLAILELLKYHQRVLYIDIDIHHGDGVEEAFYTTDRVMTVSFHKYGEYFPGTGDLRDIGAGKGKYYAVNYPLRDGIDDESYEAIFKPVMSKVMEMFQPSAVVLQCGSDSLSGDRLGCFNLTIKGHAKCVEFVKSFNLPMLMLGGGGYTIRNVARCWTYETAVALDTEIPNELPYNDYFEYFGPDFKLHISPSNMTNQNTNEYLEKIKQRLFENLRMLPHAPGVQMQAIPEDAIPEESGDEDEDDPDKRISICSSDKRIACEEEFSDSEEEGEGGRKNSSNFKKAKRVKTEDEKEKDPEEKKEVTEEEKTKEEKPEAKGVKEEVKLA
T5 sequence (Q9UKV0 whole entry): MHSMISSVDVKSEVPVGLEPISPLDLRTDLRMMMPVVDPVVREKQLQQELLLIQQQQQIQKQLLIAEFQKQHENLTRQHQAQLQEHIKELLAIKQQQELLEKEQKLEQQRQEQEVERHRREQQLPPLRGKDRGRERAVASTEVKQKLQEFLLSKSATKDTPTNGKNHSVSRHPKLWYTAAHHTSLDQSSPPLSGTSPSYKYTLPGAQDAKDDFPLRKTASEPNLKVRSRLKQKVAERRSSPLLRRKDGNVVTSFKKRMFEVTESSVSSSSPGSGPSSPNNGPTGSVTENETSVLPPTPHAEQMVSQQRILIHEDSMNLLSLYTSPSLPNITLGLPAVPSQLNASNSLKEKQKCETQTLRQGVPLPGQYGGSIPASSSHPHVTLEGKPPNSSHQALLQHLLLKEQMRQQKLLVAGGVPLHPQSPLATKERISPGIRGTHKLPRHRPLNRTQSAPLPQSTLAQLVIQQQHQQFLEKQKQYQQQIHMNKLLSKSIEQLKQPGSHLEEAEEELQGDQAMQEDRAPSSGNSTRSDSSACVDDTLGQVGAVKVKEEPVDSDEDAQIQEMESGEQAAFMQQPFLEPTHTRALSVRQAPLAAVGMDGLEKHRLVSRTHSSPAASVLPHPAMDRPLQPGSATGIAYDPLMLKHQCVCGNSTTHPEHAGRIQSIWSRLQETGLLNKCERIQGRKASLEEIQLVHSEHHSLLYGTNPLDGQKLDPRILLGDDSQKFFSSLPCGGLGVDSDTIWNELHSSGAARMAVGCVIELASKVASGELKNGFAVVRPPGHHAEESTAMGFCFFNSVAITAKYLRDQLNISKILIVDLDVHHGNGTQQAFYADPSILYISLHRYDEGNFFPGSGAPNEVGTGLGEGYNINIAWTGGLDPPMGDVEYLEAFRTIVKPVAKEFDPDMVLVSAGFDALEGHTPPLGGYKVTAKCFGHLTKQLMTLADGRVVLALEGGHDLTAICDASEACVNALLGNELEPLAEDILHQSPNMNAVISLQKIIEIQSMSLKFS
T4 sequence (O15379 whole entry): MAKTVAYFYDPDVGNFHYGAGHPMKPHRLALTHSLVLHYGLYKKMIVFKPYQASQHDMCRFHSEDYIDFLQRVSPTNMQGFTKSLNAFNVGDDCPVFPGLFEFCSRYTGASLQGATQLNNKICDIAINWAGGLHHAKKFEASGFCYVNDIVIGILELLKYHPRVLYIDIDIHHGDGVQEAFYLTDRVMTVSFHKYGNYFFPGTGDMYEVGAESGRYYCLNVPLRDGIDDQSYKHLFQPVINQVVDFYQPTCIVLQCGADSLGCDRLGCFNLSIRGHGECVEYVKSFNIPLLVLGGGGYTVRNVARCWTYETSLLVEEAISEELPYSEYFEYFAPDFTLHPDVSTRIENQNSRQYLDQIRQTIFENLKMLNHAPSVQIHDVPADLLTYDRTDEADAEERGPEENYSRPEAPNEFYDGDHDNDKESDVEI
T4 sequence (Q9Y618 395-489 partner limits assumed): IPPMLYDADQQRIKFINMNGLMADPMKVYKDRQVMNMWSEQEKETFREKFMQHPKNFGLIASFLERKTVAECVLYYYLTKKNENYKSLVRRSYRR

Compound	HDAC 1 inhibitory activity (Recombinant human HDAC1)	HDAC 6 inhibitory activity (Recombinant human HDAC6)	HDAC 8 inhibitory activity (Recombinant human HDAC8)	HDAC 3 inhibitory activity [1]	HDAC 9 inhibitory activity (Recombinant human HDAC9)
O=C(NCC(c1ccccc1)c1ccccc1)c1coc(-c2ccccc2O)n1 [Example 3, N-(2,2-Diphenylethyl)-2-(2-hydroxyphenyl)oxazole-4-carboxamide]	43.9%	49.1%	16.7%	23.7%	21.6%
O=C(NCc1ccc(-c2ccccc2)cc1)c1coc(-c2ccccc2O)n1 [Example 6, N-([1,1′-Biphenyl]-4-ylmethyl)-2-(2-hydroxyphenyl)oxazole-4-carboxamide]	61.4%	47.8%	17.9%	40.1%	20.8%
O=C(Nc1ccccc1)c1ccc(CNC(=O)c2coc(-c3ccccc3O)n2)cc1 [Example 15, 2-(2-Hydroxyphenyl)-N-(4-(phenylcarbamoyl)benzyl)oxazole-4-carboxamide]	47%	30.8%	0%	15.8%	24.3%
O=C(NCCCCNCCC(c1ccccc1)c1ccccc1)c1coc(-c2ccccc2O)n1 [Example 12, N-(4-((3,3-Diphenylpropyl)amino)butyl)-2-(2-hydroxyphenyl)oxazole-4-carboxamide hydrochloride]	32.2%	28.9%	14.0%	18.1%	16.4%
O=C(NCCCCNC(=O)C(c1ccccc1)c1ccccc1)c1coc(-c2ccccc2O)n1 [Example 10, N-(4-(2,2-Diphenylacetamido)butyl)-2-(2-hydroxyphenyl)oxazole-4-carboxamide]	27.2%	26.7%	0%	4.0%	9.0%
O=C(NCCCCNC(=S)NCCC(c1ccccc1)c1ccccc1)c1coc(-c2ccccc2O)n1 [Example 11, N-(4-(3-(3,3-Diphenylpropyl)thioureido)butyl)-2-(2-hydroxyphenyl)oxazole-4-carboxamide]	43.3%	50.2%	0%	3.7%	70.2%
O=C(NC(c1ccccc1)c1ccccc1)c1coc(-c2ccccc2O)n1 [Example 2, N-Benzhydryl-2-(2-hydroxyphenyl)oxazole-4-carboxamide]	68.0%	61.6%	23.3%	37.8%	33.3%
O=C(Nc1ccccc1)c1coc(-c2ccccc2O)n1 [Example 1, 2-(2-Hydroxyphenyl)-N-phenyloxazole-4-carboxamide]	62.5%	50.3%	0%	22.5%	20.5%
O=C(NCCC(c1ccccc1)c1ccccc1)c1coc(-c2ccccc2O)n1 [Example 4, N-(3,3-Diphenylpropyl)-2-(2-hydroxyphenyl)oxazole-4-carboxamide]	35.9%	48.1%	7.2%	37.5%	28.2%
O=C(NCCc1c[nH]c2ccccc12)c1coc(-c2ccccc2O)n1 [Example 8, N-(2-(1H-Indol-3-yl)ethyl)-2-(2-hydroxyphenyl)oxazole-4-carboxamide]	41.7%	30.8%	7.7%	18.9%	18.4%
O=C(Nc1ccc(-c2ccccc2)cc1)c1coc(-c2ccccc2O)n1 [Example 5, N-([1,1′-Biphenyl]-4-yl)-2-(2-hydroxyphenyl)oxazole-4-carboxamide]	62.2%	45.6%	7.2%	30.2%	32.4%
O=C(CNC(=O)c1coc(-c2ccccc2O)n1)Nc1ccccc1 [Example 16, 2-(2-Hydroxyphenyl)-N-(2-oxo-2-(phenylamino)ethyl)oxazole-4-carboxamide]	25.5%	59.9%	15.0%	36.9%	14.2%
O=C(NCc1cccc2ccccc12)c1coc(-c2ccccc2O)n1 [Example 7, 2-(2-Hydroxyphenyl)-N-(naphthalen-1-ylmethyl)oxazole-4-carboxamide]	47.8%	40.4%	10.6%	32.3%	15.5%
O=C(NCCCCN1C(=O)c2ccccc2C1=O)c1coc(-c2ccccc2O)n1 [Example 9, N-(4-(1,3-Dioxoisoindolin-2-yl)butyl)-2-(2-hydroxyphenyl)oxazole-4-carboxamide]	35.2%	46.0%	9.6%	11.0%	16.4%
